Target: T1, C-terminal GST-tagged, recombinant, human IGF-1R, amino acids 954-1367 (Homo sapiens, UniProt P08069)
T1 construct: human IGF-1R, amino acids 954-1367 expressed by baculovirus in Sf21 cells; GST (C); purchased Cell Signaling Technology; host or cells: baculovirus in Sf21 cells
Assay: IGF-1R homogenous time-resolved fluorescence (HTRF) in vitro kinase assay
Type: biochemical
Conditions: IGF-1R kinase, ATP 50 μM final, biotinylated peptide substrate 0.5 μM, 60 minutes at room temperature
Procedure: IGF-1R kinase activity was assayed by a homogenous time-resolved fluorescence (HTRF) in vitro kinase assay (Mathis, G., HTRF(R) Technology. J Biomol Screen, 1999. 4(6): p. 309-314). Specifically, 10 μL C-terminal GST-tagged, recombinant, human IGF-1R, amino acids 954-1367 expressed by baculovirus in Sf21 cells (Cell Signaling Technology) was mixed with 10 μL inhibitor (various concentrations, 2% final DMSO) and 10 μL of ATP (50 μM final concentration) in reaction buffer (50 mM HEPES, pH 7.5, 10 mM MgCl2, 2 mM MnCl2, 0.1% BSA and 1 mM DTT, 40 μL final volume). The reaction was initiated by addition of 10 μL of biotinylated peptide substrate (Biotin-Ahx-[…], 0.5 μM final concentration) in a black 384-well plate (Packard). After 60 minutes incubation at room temperature, the reaction was quenched by addition of 60 μL stop/revelation buffer to give 30 mM EDTA, 1 μg/mL streptavidin-APC (Prozyme), 50 ng/mL anti-phosphotyrosine mAb PT66-K Europium Cryptate, 30 mM HEPES, pH 7.5, 120 mM KF, 0.005% Tween-20, 0.05% BSA). The quenched reaction was allowed to stand at room temperature for 1 hour and then read in a time-resolved fluorescence detector (Envision, Perkin Elmer) at 615 nm and 665 nm simultaneously. The ratio between the signal of 615 nm and 665 nm was used in the calculation of the IC50.

T1 sequence (P08069 954-1367): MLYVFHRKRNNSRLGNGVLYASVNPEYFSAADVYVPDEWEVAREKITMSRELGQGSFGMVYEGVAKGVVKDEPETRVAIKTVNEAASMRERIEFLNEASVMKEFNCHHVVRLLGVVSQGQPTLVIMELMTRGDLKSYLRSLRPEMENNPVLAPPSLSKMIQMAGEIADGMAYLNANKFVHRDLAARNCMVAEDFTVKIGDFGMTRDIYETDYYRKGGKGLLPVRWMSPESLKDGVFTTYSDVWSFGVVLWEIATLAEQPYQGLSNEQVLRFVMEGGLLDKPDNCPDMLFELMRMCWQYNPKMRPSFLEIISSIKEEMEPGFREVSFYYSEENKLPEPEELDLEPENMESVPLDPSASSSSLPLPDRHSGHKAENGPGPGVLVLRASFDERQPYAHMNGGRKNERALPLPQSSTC

Compound	IC50 [nM]
O=C1CCCN1c1cccc(Nc2nccc(-c3c(-c4ccc5[nH]c(Cc6ccccc6)nc5c4)nc4ccccn34)n2)c1 [Example 1, 1-[3-({4-[2-(2-benzyl-1H-benzimidazol-5-yl)imidazo[1,2-a]pyridin-3-yl]pyrimidin-2-yl}amino)phenyl]pyrrolidin-2-one]	10 to 50
CN(C)CCc1cccc(Nc2nccc(-c3c(-c4ccc5[nH]c(Cc6ccccc6C(F)(F)F)nc5c4)nc4ccccn34)n2)c1 [Example 6, N-{3-[2-(dimethylamino)ethyl]phenyl}-4-(2-{2-[2-(trifluoromethyl)benzyl]-1H-benzimidazol-5-yl}imidazo[1,2-a]pyridin-3-yl)pyrimidin-2-amine]	< 10
COc1ccccc1Cc1nc2ccc(-c3nc4sccn4c3-c3ccnc(Nc4cccc(CCN(C)C)c4)n3)cc2[nH]1 [Example 8, N-{3-[2-(dimethylamino)ethyl]phenyl}-4-{6-[2-(2-methoxybenzyl)-1H-benzimidazol-6-yl]imidazo[2,1-b][1,3]thiazol-5-yl}pyrimidin-2-amine]	< 10
CN(C)CCc1cccc(Nc2nccc(-c3c(-c4ccc5nc(Cc6ccccc6Cl)[nH]c5c4)nc4sccn34)n2)c1 [Example 9, 4-{6-[2-(2-chlorobenzyl)-1H-benzimidazol-6-yl]imidazo[2,1-b][1,3]thiazol-5-yl}-N-{3-[2-(dimethylamino)ethyl]phenyl}pyrimidin-2-amine]	< 10
CN(C)CCc1cccc(Nc2nccc(-c3c(-c4ccc5nc(CCc6ccccc6)[nH]c5c4)nc4ccccn34)n2)c1 [Example 10, N-{3-[2-(dimethylamino)ethyl]phenyl}-4-{2-[2-(2-phenylethyl)-1H-benzimidazol-6-yl]imidazo[1,2-a]pyridin-3-yl}pyrimidin-2-amine]	10 to 50
c1ccc(Nc2nccc(-c3c(-c4ccc5nc(-c6ccccc6)[nH]c5c4)nc4ccccn34)n2)cc1 [Example 11, N-phenyl-4-[2-(2-phenyl-1H-benzimidazol-6-yl)imidazo[1,2-a]pyridin-3-yl]pyrimidin-2-amine]	101 to 500
CS(=O)(=O)c1cccc(Nc2nccc(-c3c(-c4ccc5nc(Cc6ccccc6)[nH]c5c4)nc4ccccn34)n2)c1 [Example 16, 4-[2-(2-benzyl-1H-benzimidazol-6-yl)imidazo[1,2-a]pyridin-3-yl]-N-[3-(methylsulfonyl)phenyl]pyrimidin-2-amine]	51 to 100
CN(C)S(=O)(=O)c1cccc(Nc2nccc(-c3c(-c4ccc5nc(Cc6ccccc6)[nH]c5c4)nc4ccccn34)n2)c1 [Example 17, 3-({4-[2-(2-benzyl-1H-benzimidazol-6-yl)imidazo[1,2-a]pyridin-3-yl]pyrimidin-2-yl}amino)-N,N-dimethylbenzenesulfonamide]	101 to 500
CS(=O)(=O)c1ccc(Nc2nccc(-c3c(-c4ccc5nc(Cc6ccccc6)[nH]c5c4)nc4ccccn34)n2)cc1 [Example 18, 4-[2-(2-benzyl-1H-benzimidazol-6-yl)imidazo[1,2-a]pyridin-3-yl]-N-[4-(methylsulfonyl)phenyl]pyrimidin-2-amine]	51 to 100
COc1cc(N2CCOCC2)ccc1Nc1nccc(-c2c(-c3ccc4nc(Cc5c(F)cccc5F)[nH]c4c3)nc3ccccn23)n1 [Example 21, 4-{2-[2-(2,6-difluorobenzyl)-1H-benzimidazol-6-yl]imidazo[1,2-a]pyridin-3-yl}-N-(2-methoxy-4-morpholin-4-ylphenyl)pyrimidin-2-amine]	10 to 50
c1ccc(Cc2nc3ccc(-c4nc5ccccn5c4-c4ccnc(Nc5cc(C6CC6)n[nH]5)n4)cc3[nH]2)cc1 [Example 26, 4-[2-(2-benzyl-1H-benzimidazol-6-yl)imidazo[1,2-a]pyridin-3-yl]-N-(3-cyclopropyl-1H-pyrazol-5-yl)pyrimidin-2-amine]	10 to 50

Now from value to compound:

IC50 [nM]	Compound
< 10	CN(C)CCc1cccc(Nc2nccc(-c3c(-c4ccc5nc(Cc6ccccc6)[nH]c5c4)nc4ccccn34)n2)c1 [Example 2, 4-[2-(2-benzyl-1H-benzimidazol-6-yl)imidazo[1,2-a]pyridin-3-yl]-N-{3-[2-(dimethylamino)ethyl]phenyl}pyrimidin-2-amine]
< 10	COc1ccccc1Cc1nc2cc(-c3nc4ccccn4c3-c3ccnc(Nc4cccc(CCN(C)C)c4)n3)ccc2[nH]1 [Example 3, N-{3-[2-(dimethylamino)ethyl]phenyl}-4-{2-[2-(2-methoxybenzyl)-1H-benzimidazol-5-yl]imidazo[1,2-a]pyridin-3-yl}pyrimidin-2-amine]
10 to 50	c1ccc(Cc2nc3cc(-c4nc5ccccn5c4-c4ccnc(Nc5ccccc5)n4)ccc3[nH]2)cc1 [Example 4, 4-[2-(2-benzyl-1H-benzimidazol-5-yl)imidazo[1,2-a]pyridin-3-yl]-N-phenylpyrimidin-2-amine]
< 10	CN(C)CCc1cccc(Nc2nccc(-c3c(-c4ccc5[nH]c(Cc6ccccc6Cl)nc5c4)nc4ccccn34)n2)c1 [Example 5, 4-{2-[2-(2-chlorobenzyl)-1H-benzimidazol-5-yl]imidazo[1,2-a]pyridin-3-yl}-N-{3-[2-(dimethylamino)ethyl]phenyl}pyrimidin-2-amine]
< 10	CN(C)CCc1cccc(Nc2nccc(-c3c(-c4ccc5nc(Cc6ccccc6)[nH]c5c4)nc4sccn34)n2)c1 [Example 7, 4-[6-(2-benzyl-1H-benzimidazol-6-yl)imidazo[2,1-b][1,3]thiazol-5-yl]-N-{3-[2-(dimethylamino)ethyl]phenyl}pyrimidin-2-amine]
< 10	CN(C)CCc1cccc(Nc2nccc(-c3c(-c4ccc5nc(Nc6ccccc6)[nH]c5c4)nc4ccccn34)n2)c1 [Example 12, 6-{3-[2-({3-[2-(dimethylamino)ethyl]phenyl}amino)pyrimidin-4-yl]imidazo[1,2-a]pyridin-2-yl}-N-phenyl-1H-benzimidazol-2-amine]
10 to 50	CN(C)CCc1cccc(Nc2nccc(-c3c(-c4ccc5nc(-c6ccccc6)[nH]c5c4)nc4ccccn34)n2)c1 [Example 13, N-{3-[2-(dimethylamino)ethyl]phenyl}-4-[2-(2-phenyl-1H-benzimidazol-6-yl)imidazo[1,2-a]pyridin-3-yl]pyrimidin-2-amine]
< 10	COc1cc(N2CCOCC2)ccc1Nc1nccc(-c2c(-c3ccc4nc(Cc5ccccc5)[nH]c4c3)nc3ccccn23)n1 [Example 14, 4-[2-(2-benzyl-1H-benzimidazol-6-yl)imidazo[1,2-a]pyridin-3-yl]-N-(2-methoxy-4-morpholin-4-ylphenyl)pyrimidin-2-amine]
51 to 100	COc1ccccc1Nc1nccc(-c2c(-c3ccc4nc(Cc5ccccc5)[nH]c4c3)nc3ccccn23)n1 [Example 15, 4-[2-(2-benzyl-1H-benzimidazol-6-yl)imidazo[1,2-a]pyridin-3-yl]-N-(2-methoxyphenyl)pyrimidin-2-amine]
> 500	c1ccc(Nc2nccc(-c3c(-c4ccc5nc(Nc6ccccc6)[nH]c5c4)nc4ccccn34)n2)cc1 [Example 19, 6-[3-(2-anilinopyrimidin-4-yl)imidazo[1,2-a]pyridin-2-yl]-N-phenyl-1H-benzimidazol-2-amine]
51 to 100	COc1ccccc1Cc1nc2ccc(-c3nc4ccccn4c3-c3ccnc(Nc4ccc(N5CCOCC5)cc4OC)n3)cc2[nH]1 [Example 20, 4-{2-[2-(2-methoxybenzyl)-1H-benzimidazol-6-yl]imidazo[1,2-a]pyridin-3-yl}-N-(2-methoxy-4-morpholin-4-ylphenyl)pyrimidin-2-amine]
< 10	COc1cc(N2CCC(N3CCN(C)CC3)CC2)ccc1Nc1nccc(-c2c(-c3ccc4[nH]c(Cc5ccccc5)nc4c3)nc3ccccn23)n1 [Example 22, 4-[2-(2-benzyl-1H-benzimidazol-5-yl)imidazo[1,2-a]pyridin-3-yl]-N-{2-methoxy-4-[4-(4-methylpiperazin-1-yl)piperidin-1-yl]phenyl}pyrimidin-2-amine]
51 to 100	c1ccc(Cc2nc3ccc(-c4nc5sccn5c4-c4ccnc(Nc5ccccc5)n4)cc3[nH]2)cc1 [Example 23, 4-[6-(2-benzyl-1H-benzimidazol-6-yl)imidazo[2,1-b][1,3]thiazol-5-yl]-N-phenylpyrimidin-2-amine]
10 to 50	COc1ccccc1Nc1nccc(-c2c(-c3ccc4nc(Cc5ccccc5)[nH]c4c3)nc3sccn23)n1 [Example 24, 4-[6-(2-benzyl-1H-benzimidazol-6-yl)imidazo[2,1-b][1,3]thiazol-5-yl]-N-(2-methoxyphenyl)pyrimidin-2-amine]
51 to 100	Cc1cc(Nc2nccc(-c3c(-c4ccc5nc(Cc6ccccc6)[nH]c5c4)nc4ccccn34)n2)n[nH]1 [Example 25, 4-[2-(2-benzyl-1H-benzimidazol-6-yl)imidazo[1,2-a]pyridin-3-yl]-N-(5-methyl-1H-pyrazol-3-yl)pyrimidin-2-amine]
10 to 50	COc1cc(N2CCOCC2)ccc1Nc1nccc(-c2c(-c3ccc4nc(-c5ccccc5)[nH]c4c3)nc3ccccn23)n1 [Example 27, N-(2-methoxy-4-morpholin-4-ylphenyl)-4-[2-(2-phenyl-1H-benzimidazol-6-yl)imidazo[1,2-a]pyridin-3-yl]pyrimidin-2-amine]
